According to paper PMC8253220, “Molecular design, synthesis and in vitro biological evaluation of thienopyrimidine–hydroxamic acids as chimeric kinase HDAC inhibitors: a challenging approach to combat cancer” (Journal of Enzyme Inhibition and Medicinal Chemistry, 2021):

Molecular target: EGFR (Homo sapiens, UniProt P00533)
Test: In vitro EGFR tyrosine kinase inhibitory assay (Z'-LYTE, SelectScreen)
Assay type: biochemical
Settings: for inhibition at 10 µM / Mean % inhibition EGFR: 10 µM single dose; for inhibition at 0.0001 µM: 0.1 nM compound; for inhibition at 0.0001 µM / inhibition at 0.001 µM / inhibition at 0.01 µM / inhibition at 0.1 µM / inhibition at 1 µM: 10 μM ATP, read-out: % Inhibition mean, EGFR (ErbB1); for inhibition at 0.001 µM: 1 nM compound; for inhibition at 0.01 µM: 10 nM compound; for inhibition at 0.1 µM: 100 nM compound; for inhibition at 1 µM: 1000 nM compound; for IC50: read-out: IC50 in enzyme assays EGFR
Experimental: The target compounds were evaluated for their in vitro inhibitory activities against EGFR, VEGFR-2, and HDAC6. The EGFR and VEGFR-2 inhibitory assays were performed at Thermo Fischer Scientific, Madison, WI, USA (SelectScreenServices@thermofisher.com). The HDAC inhibitory assays were performed at BPS Bioscience, San Diego, CA, USA (www.bpsbioscience.com). Initially, all of the synthesised target compounds were evaluated for their percent inhibitory activity against EGFR, VEGFR-2, and HDACs at 10 µM single dose concentration, in which their mean percent inhibition is summarised in (Figure 5, Tables 1 and [2]). Representative compounds were evaluated for their percent inhibitory activity against EGFR and VEGFR-2 at 6 different concentrations (0.1 nM, 1 nM, 10 nM, 100 nM, 1 µM, 10 µM) to subsequently calculate their IC50 values (Table 3). Additionally, all of the synthesised target compounds were submitted to the National Cancer Institute “NCI” Bethesda, Maryland, USA (www.dtp.nci.nih.gov), to evaluate theirs in vitro antiproliferative activities against NCI 60- cancer cell line panel.
In vitro enzyme inhibition determination for the synthesised compounds was carried out in Thermo Fischer Scientific, Madison, WI, USA (SelectScreenServices@thermofisher.com). The EGFR and VEGFR-2 tyrosine kinase % inhibitory activity at a single-dose concentration of 10 µM was performed initially then representative compounds were evaluated at single-dose concentrations of (0.1 nM, 1 nM, 10 nM, 100 nM, 1 µM) using ZYLTE technology. A fluorescence-based, coupled-enzyme format is employed in the biochemical assay and depends on the sensitivity of proteolytic cleavage to non-phosphorylated and phosphorylated peptides. Then IC50 values for selected compounds were determined by GraphPad Prism at Misr international university.

Sequence of EGFR (P00533 25-1210): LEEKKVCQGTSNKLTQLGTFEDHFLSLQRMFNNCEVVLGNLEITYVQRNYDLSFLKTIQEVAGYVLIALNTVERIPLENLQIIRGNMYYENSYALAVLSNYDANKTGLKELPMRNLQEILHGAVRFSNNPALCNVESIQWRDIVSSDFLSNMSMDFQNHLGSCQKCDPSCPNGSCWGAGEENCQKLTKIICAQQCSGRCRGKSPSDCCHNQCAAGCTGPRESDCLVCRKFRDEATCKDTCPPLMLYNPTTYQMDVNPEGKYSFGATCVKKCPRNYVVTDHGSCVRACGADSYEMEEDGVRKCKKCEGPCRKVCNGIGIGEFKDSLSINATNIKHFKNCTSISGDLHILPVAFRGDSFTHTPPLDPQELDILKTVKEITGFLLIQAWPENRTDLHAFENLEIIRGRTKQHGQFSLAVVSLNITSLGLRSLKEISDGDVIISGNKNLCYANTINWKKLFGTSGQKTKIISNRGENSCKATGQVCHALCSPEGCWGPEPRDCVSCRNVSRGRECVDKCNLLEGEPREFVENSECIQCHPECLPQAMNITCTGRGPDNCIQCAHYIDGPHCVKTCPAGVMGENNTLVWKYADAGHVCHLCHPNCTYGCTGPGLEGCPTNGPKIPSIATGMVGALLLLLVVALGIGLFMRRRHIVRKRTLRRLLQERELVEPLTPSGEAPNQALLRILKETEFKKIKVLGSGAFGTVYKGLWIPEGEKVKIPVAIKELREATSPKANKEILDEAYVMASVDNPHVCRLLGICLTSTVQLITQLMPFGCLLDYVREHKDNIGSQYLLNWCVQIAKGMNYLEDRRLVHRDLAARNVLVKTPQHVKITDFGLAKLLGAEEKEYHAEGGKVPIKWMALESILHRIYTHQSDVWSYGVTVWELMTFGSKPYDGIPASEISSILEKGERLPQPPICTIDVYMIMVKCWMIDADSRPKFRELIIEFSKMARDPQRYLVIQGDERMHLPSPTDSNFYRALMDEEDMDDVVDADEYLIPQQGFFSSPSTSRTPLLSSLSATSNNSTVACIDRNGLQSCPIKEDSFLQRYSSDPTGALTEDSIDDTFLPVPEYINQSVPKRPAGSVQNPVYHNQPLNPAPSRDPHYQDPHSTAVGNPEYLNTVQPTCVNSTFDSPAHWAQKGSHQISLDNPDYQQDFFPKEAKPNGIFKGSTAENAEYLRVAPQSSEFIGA

## Cc1c(C(=O)NO)sc2ncnc(Nc3ccc(NC(=O)Nc4ccccc4)cc3)c12 [Compound 7a, 1–(4-(6-(hydroxycarbamoyl)-5-methylthieno[2,3-d]pyrimidin-4-ylamino)phenyl)-3-phenylurea]
  inhibition at 10 µM: 48%

## COc1cccc(NC(=O)Nc2ccc(Nc3ncnc4sc(C(=O)NO)c(C)c34)cc2)c1 [Compound 7b, 1–(4-(6-(hydroxycarbamoyl)-5-methylthieno[2,3-d]pyrimidin-4-ylamino)phenyl)-3–(3-methoxyphenyl)urea]
  inhibition at 10 µM: 39%

## Cc1c(C(=O)NO)sc2ncnc(Nc3ccc(NC(=O)Nc4cccc(C(F)(F)F)c4)cc3)c12 [Compound 7c, 1–(4-(6-(hydroxycarbamoyl)-5-methylthieno[2,3-d]pyrimidin-4-ylamino)phenyl)-3–(3-(trifluoromethyl)phenyl)urea]
  inhibition at 10 µM: 11%

## Cc1c(C(=O)NO)sc2ncnc(Nc3ccc(NC(=S)Nc4ccccc4)cc3)c12 [Compound 7d, 1–(4-(6-(hydroxycarbamoyl)-5-methylthieno[2,3-d]pyrimidin-4-ylamino)phenyl)-3-phenylthiourea]
  inhibition at 10 µM: 78%

## Cc1c(C(=O)NCCC(=O)NO)sc2ncnc(Nc3ccc(NC(=O)Nc4ccccc4)cc3)c12 [Compound 11a, 1–(4-(6-((3-(hydroxyamino)-3-oxopropyl)carbamoyl)-5-methylthieno[2,3-d]pyrimidin-4-ylamino)phenyl)-3-phenylurea]
  inhibition at 10 µM: 12%

## COc1cccc(NC(=O)Nc2ccc(Nc3ncnc4sc(C(=O)NCCC(=O)NO)c(C)c34)cc2)c1 [Compound 11b, 1–(4-(6-((3-(hydroxyamino)-3-oxopropyl)carbamoyl)-5-methylthieno[2,3-d]pyrimidin-4-ylamino)phenyl)-3–(3-methoxyphenyl)urea]
  inhibition at 10 µM: 5%

## Cc1c(C(=O)NCCC(=O)NO)sc2ncnc(Nc3ccc(NC(=O)Nc4cccc(C(F)(F)F)c4)cc3)c12 [Compound 11c, 1–(4-(6-((3-(hydroxyamino)-3-oxopropyl)carbamoyl)-5-methylthieno[2,3-d]pyrimidin-4-ylamino)phenyl)-3–(3-(trifluoromethyl)phenyl)urea]
  inhibition at 10 µM: 11%

## Cc1c(C(=O)NCCCC(=O)NO)sc2ncnc(Nc3ccc(NC(=O)Nc4ccccc4)cc3)c12 [Compound 12a, 1–(4-(6-((4-(hydroxyamino)-4-oxobutyl)carbamoyl)-5-methylthieno[2,3-d]pyrimidin-4-ylamino)phenyl)-3-phenylurea]
  inhibition at 10 µM: 11%

## COc1cccc(NC(=O)Nc2ccc(Nc3ncnc4sc(C(=O)NCCCC(=O)NO)c(C)c34)cc2)c1 [Compound 12b, 1–(4-(6-((4-(hydroxyamino)-4-oxobutyl)carbamoyl)-5-methylthieno[2,3-d]pyrimidin-4-ylamino)phenyl)-3–(3-methoxyphenyl)urea]
  inhibition at 10 µM: 5%

## Cc1c(C(=O)NCCCC(=O)NO)sc2ncnc(Nc3ccc(NC(=O)Nc4cccc(C(F)(F)F)c4)cc3)c12 [Compound 12c, 1–(4-(6-((4-(hydroxyamino)-4-oxobutyl)carbamoyl)-5-methylthieno[2,3-d]pyrimidin-4-ylamino)phenyl)-3–(3-(trifluoromethyl)phenyl)urea]
  inhibition at 0.0001 µM: 6%
  inhibition at 0.001 µM: 4%
  inhibition at 0.01 µM: 4%
  inhibition at 0.1 µM: 7%
  inhibition at 1 µM: 34%
  inhibition at 10 µM: 66%
  IC50: 1140 nM

## Cc1c(C(=O)NO)sc2ncnc(Nc3cccc4[nH]cnc34)c12 [Compound 15a, 4-(1H-benzo[d]imidazol-4-ylamino)-N-hydroxy-5-methylthieno[2,3-d]pyrimidine-6-carboxamide]
  inhibition at 10 µM: 45%

## Cc1c(C(=O)NO)sc2ncnc(Nc3ccccc3)c12 [Compound 15b, N-hydroxy-5-methyl-4-(phenylamino)thieno[2,3-d]pyrimidine-6-carboxamide]
  inhibition at 10 µM: 98%

## Cc1c(C(=O)NO)sc2ncnc(Nc3ccc(Cl)cc3)c12 [Compound 15c, 4–(4-chlorophenylamino)-N-hydroxy-5-methylthieno[2,3-d]pyrimidine-6-carboxamide]
  inhibition at 0.0001 µM: 0%
  inhibition at 0.001 µM: 5%
  inhibition at 0.01 µM: 34%
  inhibition at 0.1 µM: 81%
  inhibition at 1 µM: 95%
  Mean % inhibition EGFR: 97%
  IC50: 19 nM

## Cc1c(C(=O)NO)sc2ncnc(Nc3ccc(F)c(Cl)c3)c12 [Compound 15d, 4–(3-chloro-4-fluorophenylamino)-N-hydroxy-5-methylthieno[2,3-d]pyrimidine-6-carboxamide]
  inhibition at 10 µM: 97%

## Cc1c(C(=O)NCCC(=O)NO)sc2ncnc(Nc3ccccc3)c12 [Compound 19b, N-(3-(hydroxyamino)-3-oxopropyl)-5-methyl-4-(phenylamino)thieno[2,3-d]pyrimidine-6-carboxamide]
  inhibition at 10 µM: 76%

## Cc1c(C(=O)NCCC(=O)NO)sc2ncnc(Nc3ccc(Cl)cc3)c12 [Compound 19c, 4–(4-chlorophenylamino)-N-(3-(hydroxyamino)-3-oxopropyl)-5-methylthieno[2,3-d]pyrimidine-6-carboxamide]
  inhibition at 10 µM: 78%

## Cc1c(C(=O)NCCC(=O)NO)sc2ncnc(Nc3ccc(F)c(Cl)c3)c12 [Compound 19d, 4–(3-chloro-4-fluorophenylamino)-N-(3-(hydroxyamino)-3-oxopropyl)-5-methylthieno[2,3-d]pyrimidine-6-carboxamide]
  inhibition at 10 µM: 96%

## Cc1c(C(=O)NCCCC(=O)NO)sc2ncnc(Nc3ccccc3)c12 [Compound 20b, N-(4-(hydroxyamino)-4-oxobutyl)-5-methyl-4-(phenylamino)thieno[2,3-d]pyrimidine-6-carboxamide]
  inhibition at 0.0001 µM: 2%
  inhibition at 0.001 µM: 1%
  inhibition at 0.01 µM: 7%
  inhibition at 0.1 µM: 35%
  inhibition at 1 µM: 85%
  inhibition at 10 µM: 92%
  IC50: 155 nM

## Cc1c(C(=O)NCCCC(=O)NO)sc2ncnc(Nc3ccc(Cl)cc3)c12 [Compound 20c, 4–(4-chlorophenylamino)-N-(4-(hydroxyamino)-4-oxobutyl)-5-methylthieno[2,3-d]pyrimidine-6-carboxamide]
  Mean % inhibition EGFR: 91%
  inhibition at 10 µM: 96%

## Cc1c(C(=O)NCCCC(=O)NO)sc2ncnc(Nc3ccc(F)c(Cl)c3)c12 [Compound 20d, 4–(3-chloro-4-fluorophenylamino)-N-(4-(hydroxyamino)-4-oxobutyl)-5-methylthieno[2,3-d]pyrimidine-6-carboxamide]
  inhibition at 0.0001 µM: 1%
  inhibition at 0.001 µM: 5%
  inhibition at 0.01 µM: 14%
  inhibition at 0.1 µM: 58%
  inhibition at 1 µM: 93%
  Mean % inhibition EGFR: 96%
  inhibition at 10 µM: 97%
  IC50: 68 nM
